Experiments:
Assay type in all cases: cell-based
[1] = tested on: Metallo-β-lactamase producing strains (N = 27); assay: MIC50/MIC90 for carbapenemase-producing isolates (Example 5, Table 6); design: MIC50: unit not given here
53 CRE and CPE strains = assay: MICrange, MIC50, MIC80, MIC90 for 53 bacterial isolates (Example 5, Table 5); details: 53 bacterial isolates
Enterobacterales = assay: MIC, broth microdilution, CDC/FDA Antibiotic Resistance Isolate Bank (Example 7, Tables 8, 11, 12)
[2] = 154 strains of Enterobacterales
[3] = carbapenemase-producing Enterobacterales, Metallo-β-lactamase (N = 47)
[4] = carbapenemase-producing Enterobacterales, Serine carbapenemase (N=61)

colistin gave an MIC50 ([1]; Metallo-β-lactamase (N = 27): IMP-1 (12), IMP-6 (3), IMP-34 (1), NDM-1 (8), NDM-6 (1), VIM-1 (2)) of 0.25, an MIC90 ([1]; metallo-β-lactamase-producing strains, combination: Compound A at a fixed concentration of 4 µg/mL) of 1 µg/mL and an MIC50 (53 CRE and CPE strains) of 0.5 µg/mL. For the same substance, the MIC80 (53 CRE and CPE strains) was 1 µg/mL, the MIC90 (53 CRE and CPE strains) was 32 µg/mL and the MIC50 (Enterobacterales; [2]) was 0.5 µg/mL. For the same substance, the MIC80 (Enterobacterales; [2]) was 8 µg/mL, the MIC90 (Enterobacterales; [2]) was >64 µg/mL and the MIC (Enterobacterales; Citrobacter fremidii, KUB No. 5613, AR Bank # 116) was 1 µg/mL. For the same substance, the MIC (Enterobacterales; Enterobacter aerogenes, KUB No. 5559, AR Bank # 62) was 8 µg/mL, the MIC (Enterobacterales; Enterobacter aerogenes, KUB No. 5571, AR Bank # 74) was 0.5 µg/mL and the MIC (Enterobacterales; Enterobacter cloacae KUB No. 5792, AR Bank #448) was 0.5 µg/mL. It also gave an MIC (Enterobacterales; Enterobacter cloacae KUB No. 5807, AR Bank #501) of 0.5 µg/mL, an MIC (Enterobacterales; Enterobacter cloacae KUB No. 5808, AR Bank #502) of 0.5 µg/mL and an MIC (Enterobacterales; Enterobacter cloacae complex, KUB No. 5661, AR Bank # 164) of 0.5 µg/mL. It also gave an MIC (Enterobacterales; Enterobacter cloacae group, KUB No. 5629, AR Bank # 132) of 1 µg/mL, an MIC (Enterobacterales; Enterobacter cloacae, KUB No. 5529, AR Bank# 32) of 0.5 µg/mL and an MIC (Enterobacterales; Enterobacter cloacae, KUB No. 5535, AR Bank# 38) of 0.5 µg/mL. It also gave an MIC (Enterobacterales; Enterobacter cloacae, KUB No. 5557, AR Bank# 60) of 0.5 µg/mL, an MIC (Enterobacterales; Enterobacter cloacae, KUB No. 5562, AR Bank # 65) of 0.5 µg/mL and an MIC (Enterobacterales; Enterobacter cloacae, KUB No. 5570, AR Bank # 73) of 8 µg/mL. The MIC (Enterobacterales; Enterobacter cloacae, KUB No. 5590, AR Bank # 93) was 1 µg/mL, the MIC (Enterobacterales; Enterobacter cloacae, KUB No. 5660, AR Bank # 163) was 8 µg/mL and the MIC (Enterobacterales; Enterobacter cloacae, KUB No. 5761, AR Bank # 365) was 1 µg/mL. For the same substance, the MIC (Enterobacterales; Enterobacter cloacae, KUB No. 5763, AR Bank # 367) was 0.5 µg/mL, the MIC (Enterobacterales; Enterobacter cloacae, KUB No. 5778, AR Bank # 432) was 0.5 µg/mL and the MIC (Enterobacterales; Escherichia coli, KUB No. 5545, AR Bank# 48) was 0.5 µg/mL. The MIC (Enterobacterales; Escherichia coli, KUB No. 5552, AR Bank# 55) was 0.5 µg/mL, the MIC (Enterobacterales; Escherichia coli, KUB No. 5555, AR Bank# 58) was 0.5 µg/mL and the MIC (Enterobacterales; Escherichia coli, KUB No. 5564, AR Bank # 67) was 1 µg/mL. It also gave an MIC (Enterobacterales; Escherichia coli, KUB No. 5578, AR Bank # 81) of 0.5 µg/mL, an MIC (Enterobacterales; Escherichia coli, KUB No. 5581, AR Bank # 84) of 0.5 µg/mL and an MIC (Enterobacterales; Escherichia coli, KUB No. 5586, AR Bank # 89) of 0.5 µg/mL. It also gave an MIC (Enterobacterales; Escherichia coli, KUB No. 5601, AR Bank # 104) of 0.5 µg/mL, an MIC (Enterobacterales; Escherichia coli, KUB No. 5611, AR Bank # 114) of 0.5 µg/mL and an MIC (Enterobacterales; Escherichia coli, KUB No. 5615, AR Bank # 118) of 1 µg/mL. The MIC (Enterobacterales; Escherichia coli, KUB No. 5616, AR Bank # 119) was 0.5 µg/mL, the MIC (Enterobacterales; Escherichia coli, KUB No. 5764, AR Bank # 368) was 0.5 µg/mL and the MIC (Enterobacterales; Escherichia coli, KUB No. 5765, AR Bank # 369) was 0.5 µg/mL. It also gave an MIC (Enterobacterales; Escherichia coli, KUB No. 5768, AR Bank # 372) of 0.5 µg/mL, an MIC (Enterobacterales; Escherichia coli, KUB No. 5769, AR Bank # 373) of 0.5 µg/mL and an MIC (Enterobacterales; Escherichia coli, KUB No. 5770, AR Bank # 374) of 0.5 µg/mL. The MIC (Enterobacterales; Escherichia coli, KUB No. 5780, AR Bank # 434) was 0.5 µg/mL, the MIC (Enterobacterales; Escherichia, KUB No. 57, AR Bank # 436 (row cut off)) was 0.2 µg/mL and the MIC (Enterobacterales; Klebsiella oxytoca, KUB No. 5568, AR Bank # 71) was 0.5 µg/mL. It also gave an MIC (Enterobacterales; Klebsiella oxytoca, KUB No. 5776, AR Bank # 380) of 0.5 µg/mL, an MIC (Enterobacterales; Klebsiella ozaenae, KUB No. 5548, AR Bank# 51) of 0.5 µg/mL and an MIC (Enterobacterales; Klebsiella ozaenae, KUB No. 5593, AR Bank # 96) of 1 µg/mL. For the same substance, the MIC (Enterobacterales; Klebsiella pneumoniae KUB No. 5784, AR Bank #438) was 0.5 µg/mL, the MIC (Enterobacterales; Klebsiella pneumoniae KUB No. 5797, AR Bank #453) was 0.5 µg/mL and the MIC (Enterobacterales; Klebsiella pneumoniae KUB No. 5809, AR Bank #504) was 1 µg/mL. It also gave an MIC (Enterobacterales; Klebsiella pneumoniae KUB No. 5810, AR Bank #505) of 1 µg/mL, an MIC (Enterobacterales; Klebsiella pneumoniae KUB No. 5811, AR Bank #506) of 0.5 µg/mL and an MIC (Enterobacterales; Klebsiella pneumoniae KUB No. 5812, AR Bank #507) of 8 µg/mL. For the same substance, the MIC (Enterobacterales; Klebsiella pneumoniae KUB No. 5827, AR Bank #522) was 32 µg/mL, the MIC (Enterobacterales; Klebsiella pneumoniae KUB No. 5828, AR Bank #523) was 4 µg/mL and the MIC (Enterobacterales; Klebsiella pneumoniae KUB No. 5829, AR Bank #524) was 2 µg/mL. The MIC (Enterobacterales; Klebsiella pneumoniae KUB No. 5830, AR Bank #525) was 16 µg/mL, the MIC (Enterobacterales; Klebsiella pneumoniae, KUB No. 55, AR Bank# 47) was 64 µg/mL and the MIC (Enterobacterales; Klebsiella pneumoniae, KUB No. 5531, AR Bank# 34) was 0.5 µg/mL. The MIC (Enterobacterales; Klebsiella pneumoniae, KUB No. 5536, AR Bank# 39) was 0.5 µg/mL, the MIC (Enterobacterales; Klebsiella pneumoniae, KUB No. 5537, AR Bank# 40) was 4 µg/mL and the MIC (Enterobacterales; Klebsiella pneumoniae, KUB No. 5543, AR Bank# 46) was 4 µg/mL. The MIC (Enterobacterales; Klebsiella pneumoniae, KUB No. 5546, AR Bank# 49) was 0.5 µg/mL, the MIC (Enterobacterales; Klebsiella pneumoniae, KUB No. 5563, AR Bank # 66) was 0.5 µg/mL and the MIC (Enterobacterales; Klebsiella pneumoniae, KUB No. 5565, AR Bank # 68) was 1 µg/mL. The MIC (Enterobacterales; Klebsiella pneumoniae, KUB No. 5572, AR Bank # 75) was 0.5 µg/mL, the MIC (Enterobacterales; Klebsiella pneumoniae, KUB No. 5577, AR Bank # 80) was 0.5 µg/mL and the MIC (Enterobacterales; Klebsiella pneumoniae, KUB No. 5584, AR Bank # 87) was 64 µg/mL. The MIC (Enterobacterales; Klebsiella pneumoniae, KUB No. 5594, AR Bank # 97) was 8 µg/mL, the MIC (Enterobacterales; Klebsiella pneumoniae, KUB No. 5603, AR Bank # 106) was 32 µg/mL and the MIC (Enterobacterales; Klebsiella pneumoniae, KUB No. 5604, AR Bank # 107) was 0.5 µg/mL. For the same substance, the MIC (Enterobacterales; Klebsiella pneumoniae, KUB No. 5606, AR Bank # 109) was 32 µg/mL, the MIC (Enterobacterales; Klebsiella pneumoniae, KUB No. 5609, AR Bank # 112) was 0.5 µg/mL and the MIC (Enterobacterales; Klebsiella pneumoniae, KUB No. 5610, AR Bank # 113) was 0.5 µg/mL. For the same substance, the MIC (Enterobacterales; Klebsiella pneumoniae, KUB No. 5612, AR Bank # 115) was 1 µg/mL, the MIC (Enterobacterales; Klebsiella pneumoniae, KUB No. 5614, AR Bank # 117) was 1 µg/mL and the MIC (Enterobacterales; Klebsiella pneumoniae, KUB No. 5617, AR Bank # 120) was 1 µg/mL. For the same substance, the MIC (Enterobacterales; Klebsiella pneumoniae, KUB No. 5622, AR Bank # 125) was 16 µg/mL, the MIC (Enterobacterales; Klebsiella pneumoniae, KUB No. 5626, AR Bank # 129) was 0.5 µg/mL and the MIC (Enterobacterales; Klebsiella pneumoniae, KUB No. 5757, AR Bank # 361) was 0.5 µg/mL. For the same substance, the MIC (Enterobacterales; Klebsiella pneumoniae, KUB No. 5759, AR Bank # 363) was 0.5 µg/mL, the MIC (Enterobacterales; Klebsiella pneumoniae, KUB No. 5760, AR Bank # 364) was 64 µg/mL and the MIC (Enterobacterales; Klebsiella pneumoniae, KUB No. 5772, AR Bank # 376) was 0.5 µg/mL. For the same substance, the MIC (Enterobacterales; Proteus mirabilis, KUB No. 5775, AR Bank # 379) was 64 µg/mL, the MIC (Enterobacterales; Raoultella ornithinolvtica, KUB No. 5631, AR Bank # 134) was 8 µg/mL and the MIC (Enterobacterales; Salmonella Senftenberg, KUB No. 5624, AR Bank # 127) was 0.5 µg/mL. The MIC50 (Enterobacterales; [3]) was 0.5 µg/mL, the MIC90 (Enterobacterales; [3]) was 8 µg/mL and the MIC50 (Enterobacterales; [4]) was 0.5 µg/mL. For the same substance, the MIC90 (Enterobacterales; [4]) was >64 µg/mL and the MIC90 (Enterobacterales; metallo-β-lactamase-producing strains of Enterobacterales) was 8 µg/mL.
